Test results: US12509449B2, “Anthelmintic compounds comprising a quinoline structure” (Intervet Inc., priority 2019, dated 2025)

How the values were obtained:
[1] = tested on: Oesophagostumum dentatum L3; assay: In vitro assay Oesophagostumum dentatum larval stage 3, minimum effective concentration; assay type: cell-based; conditions: 20 larvae per well, microscopic examination; read-out: MEC (minimum effective concentration) against Oesophagostumum dentatum L3
Excerpt: (§1) […] galli (intestinal roundworm of chicken), larval stage 3 (“L3”); and Oesophagostumum dentatum (nodular worm of swine), larval stages 3 and 4 (respectively “L3” and “L4”) where suspended in a nutrient medium and distributed to 96 well plates with 20 larvae per well. The wells were spiked DMSO solutions of the compounds with declining concentration.

[2] = molecular target: Caenorhabditis elegans slo-1a (Caenorhabditis elegans, UniProt Q95V25); assay: Agonistic activity at C. elegans Slo-1a, membrane potential (FLIPR) in transfected CHO K1 cells; conditions: EC50 agonistic activity at C. elegans Slo-1a, membrane potential dye, 70 mM KCl
[3] = molecular target: T1, human Maxi K channel (BK channel), KCNMA1 (KCa1.1) and beta1 (KCNMB1) subunits (Homo sapiens, UniProt Q12791); assay: Agonistic activity at the human Maxi K channel (BK channel), membrane potential (FLIPR) in transfected CHO K1 cells; assay type: cell-based; conditions: membrane potential dye, 70 mM KCl
T1 construct: expressed in transfected cells; host or cells: CHO K1
Excerpt: A CHO K1 cell line was stably transfected with the KCNMA1 (KCa1.1, U11058) and beta1 (KCNMB1) subunits of the human Maxi K channel (Ponte et al, Molecular Pharmacology 2012, 81(4), 567-577).
The complete measurement takes 150 s.

Ascaridia galli L3 = assay: In vitro assay Ascaridia galli larval stage 3, minimum effective concentration; assay type: cell-based; conditions: 20 larvae per well, microscopic examination, read-out: MEC (minimum effective concentration) against Ascaridia galli L3
Excerpt: as §1

T1 sequence (Q12791 1-1178 isoform Q12791-5): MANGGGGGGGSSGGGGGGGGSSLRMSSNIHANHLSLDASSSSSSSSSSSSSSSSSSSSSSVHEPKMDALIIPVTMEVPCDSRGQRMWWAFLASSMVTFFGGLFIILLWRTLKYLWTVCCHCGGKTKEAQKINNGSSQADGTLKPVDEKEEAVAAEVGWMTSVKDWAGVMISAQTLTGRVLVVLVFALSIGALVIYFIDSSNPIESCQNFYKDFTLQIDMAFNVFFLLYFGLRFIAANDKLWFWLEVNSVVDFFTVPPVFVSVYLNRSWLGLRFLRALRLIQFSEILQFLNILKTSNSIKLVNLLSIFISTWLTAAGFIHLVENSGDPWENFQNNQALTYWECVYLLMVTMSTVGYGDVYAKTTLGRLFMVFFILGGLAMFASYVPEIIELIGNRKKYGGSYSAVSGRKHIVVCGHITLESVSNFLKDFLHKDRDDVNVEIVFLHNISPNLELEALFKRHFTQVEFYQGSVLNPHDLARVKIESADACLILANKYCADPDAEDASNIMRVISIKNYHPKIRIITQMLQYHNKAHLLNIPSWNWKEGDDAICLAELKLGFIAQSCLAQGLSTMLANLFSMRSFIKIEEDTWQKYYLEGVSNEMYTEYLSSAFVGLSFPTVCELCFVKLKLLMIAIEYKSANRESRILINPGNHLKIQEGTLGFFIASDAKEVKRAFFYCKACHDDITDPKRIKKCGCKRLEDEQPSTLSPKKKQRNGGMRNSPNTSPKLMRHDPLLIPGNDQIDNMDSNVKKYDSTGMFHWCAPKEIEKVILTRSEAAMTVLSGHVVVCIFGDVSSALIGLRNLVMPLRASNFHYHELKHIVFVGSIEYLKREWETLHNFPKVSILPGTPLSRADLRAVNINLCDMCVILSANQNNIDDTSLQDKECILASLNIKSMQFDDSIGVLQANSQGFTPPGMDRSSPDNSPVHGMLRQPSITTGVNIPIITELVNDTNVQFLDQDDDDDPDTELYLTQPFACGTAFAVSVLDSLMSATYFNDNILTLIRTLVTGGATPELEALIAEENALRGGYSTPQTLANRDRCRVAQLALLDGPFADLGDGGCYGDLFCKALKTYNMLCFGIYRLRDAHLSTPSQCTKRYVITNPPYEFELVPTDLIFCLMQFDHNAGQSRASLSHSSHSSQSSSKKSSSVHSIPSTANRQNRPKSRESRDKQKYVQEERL
T1 sequence (Q16558 whole entry partner): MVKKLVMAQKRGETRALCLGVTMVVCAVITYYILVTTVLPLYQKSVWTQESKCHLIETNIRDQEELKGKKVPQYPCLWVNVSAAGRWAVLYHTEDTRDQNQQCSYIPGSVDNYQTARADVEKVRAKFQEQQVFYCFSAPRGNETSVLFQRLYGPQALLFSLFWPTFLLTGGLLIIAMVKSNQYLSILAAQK
Sequence of Caenorhabditis elegans slo-1a (Q95V25 whole entry): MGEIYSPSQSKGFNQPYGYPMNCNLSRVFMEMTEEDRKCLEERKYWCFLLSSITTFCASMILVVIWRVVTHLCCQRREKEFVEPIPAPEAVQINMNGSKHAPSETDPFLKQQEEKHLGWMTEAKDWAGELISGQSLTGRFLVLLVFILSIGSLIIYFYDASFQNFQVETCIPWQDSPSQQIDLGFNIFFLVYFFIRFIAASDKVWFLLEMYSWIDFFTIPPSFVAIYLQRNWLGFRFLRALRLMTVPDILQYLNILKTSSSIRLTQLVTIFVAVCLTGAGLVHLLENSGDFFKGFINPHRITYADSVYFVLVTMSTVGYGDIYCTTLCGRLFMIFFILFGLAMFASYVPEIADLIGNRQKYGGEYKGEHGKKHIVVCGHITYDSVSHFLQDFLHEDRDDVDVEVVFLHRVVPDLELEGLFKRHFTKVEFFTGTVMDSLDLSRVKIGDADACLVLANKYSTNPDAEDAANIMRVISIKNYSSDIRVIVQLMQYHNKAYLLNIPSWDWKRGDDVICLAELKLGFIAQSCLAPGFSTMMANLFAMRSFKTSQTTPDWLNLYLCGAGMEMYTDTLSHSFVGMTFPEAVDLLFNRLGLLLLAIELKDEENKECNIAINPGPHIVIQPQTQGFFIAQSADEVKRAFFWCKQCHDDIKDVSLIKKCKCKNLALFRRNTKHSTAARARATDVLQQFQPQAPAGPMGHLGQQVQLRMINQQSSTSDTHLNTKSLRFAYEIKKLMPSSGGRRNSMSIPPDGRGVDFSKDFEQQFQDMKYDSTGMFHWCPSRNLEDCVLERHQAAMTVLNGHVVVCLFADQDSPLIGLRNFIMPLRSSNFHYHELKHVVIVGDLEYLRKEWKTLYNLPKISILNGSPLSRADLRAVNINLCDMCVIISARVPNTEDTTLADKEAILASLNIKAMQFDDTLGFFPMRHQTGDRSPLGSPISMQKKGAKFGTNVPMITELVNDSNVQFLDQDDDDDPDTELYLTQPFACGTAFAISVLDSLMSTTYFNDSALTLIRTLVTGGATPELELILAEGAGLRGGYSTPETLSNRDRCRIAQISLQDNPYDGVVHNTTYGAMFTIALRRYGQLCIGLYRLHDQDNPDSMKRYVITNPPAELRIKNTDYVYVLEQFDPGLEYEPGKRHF

## C=C(C)c1c(NC(=O)C2CCCc3ccccc32)cnc2c(-c3cccc(Cl)c3Cl)cccc12 (stereo not shown) [Compound 202]
[1]
  minimal effective concentration: ≤ 50 µM
[2]
  EC50: < 1 µM
[3]
  EC50: > 30 µM

## CCc1c(NC(=O)C2CCOc3ccccc32)cnc2c(-c3cc(Cl)cc(Cl)c3)cccc12 (stereo not shown) [Compound 195]
[2]
  EC50: < 1 µM
[3]
  EC50: > 30 µM
Ascaridia galli L3
  minimal effective concentration: ≤ 50 µM

## CCc1c(NC(=O)C2CCCc3ccccc32)cnc2c(-c3cc(Cl)cc(Cl)c3)cccc12 (stereo not shown) [Compound 191]
[1]
  minimal effective concentration: ≤ 50 µM
[2]
  EC50: < 1 µM
[3]
  EC50: > 30 µM

## CCOc1c(NC(=O)C2CCCc3ccccc32)cnc2c(-c3cc(Cl)cc(Cl)c3)c(F)ccc12 (stereo not shown) [Compound 114]
[1]
  minimal effective concentration: ≤ 50 µM
[3]
  EC50: > 30 µM

## CC(C)Oc1c(NC(=O)C2CCOc3ccccc32)cnc2c(-c3cccc(Cl)c3Cl)cccc12 (stereo not shown) [Compound 32]
[1]
  minimal effective concentration: ≤ 50 µM
[3]
  EC50: > 30 µM
Ascaridia galli L3
  minimal effective concentration: ≤ 50 µM

## CCOc1c(NC(=O)C2CCc3ccccc32)cnc2c(-c3cccc(Cl)c3Cl)cccc12 (stereo not shown) [Compound 57, N-(8-(2,3-dichlorophenyl)-4-ethoxyquinolin-3-yl)-2,3-dihydro-1H-indene-1-carboxamide]
[1]
  minimal effective concentration: ≤ 50 µM
[2]
  EC50: < 1 µM
[3]
  EC50: > 30 µM

## O=C(Nc1cnc2c(-c3cc(Cl)cc(Cl)c3)c(F)ccc2c1N1CCOCC1)C1CCc2ccccc21 (stereo not shown) [Compound 136]
[2]
  EC50: < 10 µM
[3]
  EC50: > 30 µM
Ascaridia galli L3
  minimal effective concentration: ≤ 50 µM

## CN(CCO)c1c(NC(=O)C2CCCc3ccccc32)cnc2c(-c3cccc(Cl)c3Cl)cccc12 (stereo not shown) [Compound 102]
[2]
  EC50: < 1 µM
[3]
  EC50: 10 to 30 µM
Ascaridia galli L3
  minimal effective concentration: ≤ 50 µM

## COc1c(NC(=O)C2CCc3ccccc32)cnc2c(-c3cccc(Cl)c3Cl)cccc12 (stereo not shown) [Compound 16]
[2]
  EC50: < 1 µM
[3]
  EC50: > 30 µM
Ascaridia galli L3
  minimal effective concentration: ≤ 50 µM

## CCc1c(NC(=O)[C@H]2CCCc3ccccc32)cnc2c(-c3cc(Cl)cc(Cl)c3)cccc12 [Compound 197]
[2]
  EC50: < 1 µM
[3]
  EC50: > 30 µM
Ascaridia galli L3
  minimal effective concentration: ≤ 50 µM

## COc1c(NC(=O)C2CCCc3ccccc32)cnc2c(-c3cc(Cl)cc(Cl)c3)c(F)ccc12 (stereo not shown) [Compound 113]
[2]
  EC50: < 1 µM
[3]
  EC50: > 30 µM
Ascaridia galli L3
  minimal effective concentration: ≤ 50 µM

## COc1c(NC(=O)C2CCOc3ccccc32)cnc2c(-c3cccc(Cl)c3Cl)c(C)ccc12 (stereo not shown) [Compound 164]
[2]
  EC50: < 10 µM
[3]
  EC50: > 30 µM
Ascaridia galli L3
  minimal effective concentration: ≤ 50 µM

## O=C(Nc1cnc2c(-c3cccc(Cl)c3Cl)cccc2c1NCCO)C1CCOc2ccccc21 (stereo not shown) [Compound 90]
[1]
  minimal effective concentration: ≤ 50 µM
[2]
  EC50: < 10 µM
[3]
  EC50: > 30 µM
Ascaridia galli L3
  minimal effective concentration: ≤ 50 µM

## CN(C)c1c(NC(=O)C2CCCc3ccccc32)cnc2c(-c3cc(Cl)cc(Cl)c3)c(F)ccc12 (stereo not shown) [Compound 115]
[2]
  EC50: < 1 µM
[3]
  EC50: > 30 µM
Ascaridia galli L3
  minimal effective concentration: ≤ 50 µM

## COc1c(NC(=O)C2CCCc3ccccc32)cnc2c(-c3cccc(Cl)c3Cl)cccc12 (stereo not shown) [Compound 14]
[2]
  EC50: < 1 µM
[3]
  EC50: > 30 µM
Ascaridia galli L3
  minimal effective concentration: ≤ 50 µM

## Cc1cccc(CC(=O)Nc2cnc3c(-c4cccc(Cl)c4Cl)cccc3c2N(C)C)c1 [Compound 35]
[1]
  minimal effective concentration: ≤ 50 µM
[2]
  EC50: < 10 µM
[3]
  EC50: > 30 µM

## CN(C)c1c(NC(=O)Cc2ccc(Cl)cc2)cnc2c(-c3cccc(Cl)c3Cl)cccc12 [Compound 25]
[1]
  minimal effective concentration: ≤ 50 µM
[2]
  EC50: < 10 µM
[3]
  EC50: > 30 µM

## CN(C)c1c(NC(=O)C2CCOc3ccccc32)cnc2c(-c3cccc(Cl)c3Cl)cccc12 (stereo not shown) [Compound 12]
[2]
  EC50: < 1 µM
[3]
  EC50: > 30 µM
Ascaridia galli L3
  minimal effective concentration: ≤ 50 µM

## CN(C)c1c(NC(=O)C2CCOc3ccccc32)cnc2c(-c3cc(F)cc(F)c3)cccc12 (stereo not shown) [Compound 38]
[2]
  EC50: < 10 µM
[3]
  EC50: > 30 µM
Ascaridia galli L3
  minimal effective concentration: ≤ 50 µM

## CC(C)Oc1c(NC(=O)C2CCCc3ccccc32)cnc2c(-c3cccc(Cl)c3Cl)c(F)ccc12 (stereo not shown) [Compound 122]
[1]
  minimal effective concentration: ≤ 50 µM
[3]
  EC50: > 30 µM
Ascaridia galli L3
  minimal effective concentration: ≤ 50 µM

## CN(C)c1c(NC(=O)C2CCOc3ccccc32)cnc2c(-c3cc(Cl)cc(Cl)c3)cccc12 (stereo not shown) [Compound 67]
[2]
  EC50: < 1 µM
[3]
  EC50: > 30 µM
Ascaridia galli L3
  minimal effective concentration: ≤ 50 µM

## CC(C)Oc1c(NC(=O)C2CCc3ccccc32)cnc2c(-c3cccc(Cl)c3Cl)c(F)ccc12 (stereo not shown) [Compound 142]
[1]
  minimal effective concentration: ≤ 50 µM
[3]
  EC50: > 30 µM
Ascaridia galli L3
  minimal effective concentration: ≤ 50 µM

## CC(C(=O)Nc1cnc2c(-c3cccc(Cl)c3Cl)cccc2c1N1CCOCC1)c1ccccc1 (stereo not shown) [Compound 21]
[2]
  EC50: < 10 µM
[3]
  EC50: > 30 µM
Ascaridia galli L3
  minimal effective concentration: ≤ 50 µM

## COc1c(NC(=O)[C@H]2CCCc3ccccc32)cnc2c(-c3cc(Cl)cc(Cl)c3)cccc12 [Compound 155]
[2]
  EC50: < 1 µM
[3]
  EC50: > 30 µM
Ascaridia galli L3
  minimal effective concentration: ≤ 50 µM

## Cc1ccc2c(N(C)C)c(NC(=O)[C@H]3CCc4ccccc43)cnc2c1-c1cc(Cl)cc(Cl)c1 [Compound 182]
[2]
  EC50: < 1 µM
[3]
  EC50: > 30 µM
Ascaridia galli L3
  minimal effective concentration: ≤ 50 µM

## CCOc1c(NC(=O)[C@H]2CCCc3ccccc32)cnc2c(-c3cc(Cl)cc(Cl)c3)cccc12 [Compound 154]
[2]
  EC50: < 1 µM
[3]
  EC50: > 30 µM
Ascaridia galli L3
  minimal effective concentration: ≤ 50 µM

## CN(C)c1c(NC(=O)C2CCOc3ccccc32)cnc2c(-c3cc(F)c(F)c(F)c3)cccc12 (stereo not shown) [Compound 39]
[2]
  EC50: < 10 µM
[3]
  EC50: > 30 µM
Ascaridia galli L3
  minimal effective concentration: ≤ 50 µM

## Nc1c(NC(=O)C2CCOc3ccccc32)cnc2c(-c3cccc(Cl)c3Cl)cccc12 (stereo not shown) [Compound 84]
[2]
  EC50: < 10 µM
[3]
  EC50: > 30 µM
Ascaridia galli L3
  minimal effective concentration: ≤ 50 µM

## Cc1c(NC(=O)C2CCOc3ccccc32)cnc2c(-c3cc(Cl)cc(Cl)c3)cccc12 (stereo not shown) [Compound 194]
[2]
  EC50: < 10 µM
[3]
  EC50: > 30 µM
Ascaridia galli L3
  minimal effective concentration: ≤ 50 µM

## CN(C)c1c(NC(=O)[C@H]2CCc3ccccc32)cnc2c(-c3cc(Cl)cc(Cl)c3)c(Cl)ccc12 [Compound 180]
[2]
  EC50: < 1 µM
[3]
  EC50: > 30 µM
Ascaridia galli L3
  minimal effective concentration: ≤ 50 µM

## O=C(Nc1cnc2c(-c3cccc(Cl)c3Cl)cccc2c1O)C1CCOc2ccccc21 (stereo not shown) [Compound 112]
[1]
  minimal effective concentration: ≤ 50 µM
[3]
  EC50: > 30 µM

## COc1c(NC(=O)C2CCOc3ccccc32)cnc2c(-c3cc(Cl)cc(Cl)c3)c(F)ccc12 (stereo not shown) [Compound 123]
[2]
  EC50: < 1 µM
[3]
  EC50: > 30 µM
Ascaridia galli L3
  minimal effective concentration: ≤ 50 µM

## CCc1c(NC(=O)c2cccc3ccccc23)cnc2c(-c3cc(Cl)cc(Cl)c3)cccc12 [Compound 199]
[2]
  EC50: < 10 µM
[3]
  EC50: > 30 µM
Ascaridia galli L3
  minimal effective concentration: ≤ 50 µM

## Cc1ccc(CC(=O)Nc2cnc3c(-c4cccc(Cl)c4Cl)cccc3c2N(C)C)cc1 [Compound 26]
[1]
  minimal effective concentration: ≤ 50 µM
[2]
  EC50: < 10 µM
[3]
  EC50: > 30 µM

## CC(C)Oc1c(NC(=O)c2cccc3ccccc23)cnc2c(-c3cc(Cl)cc(Cl)c3)cccc12 [Compound 81]
[1]
  minimal effective concentration: ≤ 50 µM
[3]
  EC50: > 30 µM

## COc1c(NC(=O)C2CCOc3ccccc32)cnc2c(-c3cccc(Cl)c3Cl)cccc12 (stereo not shown) [Compound 15]
[2]
  EC50: < 1 µM
[3]
  EC50: > 30 µM
Ascaridia galli L3
  minimal effective concentration: ≤ 50 µM

## COc1c(NC(=O)C2CCCc3ccccc32)cnc2c(-c3cc(Cl)cc(Cl)c3)cccc12 (stereo not shown) [Compound 69]
[2]
  EC50: < 1 µM
[3]
  EC50: > 30 µM
Ascaridia galli L3
  minimal effective concentration: ≤ 50 µM
